The target in this assay is Phosphatidylinositol 4-kinase type 2-alpha (Homo sapiens, UniProt Q9BTU6). The experiment in a line: Inhibition of Phosphatidylinositol 4-kinase of human epidermoid carcinoma A431 cells.
Sequence of Phosphatidylinositol 4-kinase type 2-alpha (Q9BTU6 whole entry): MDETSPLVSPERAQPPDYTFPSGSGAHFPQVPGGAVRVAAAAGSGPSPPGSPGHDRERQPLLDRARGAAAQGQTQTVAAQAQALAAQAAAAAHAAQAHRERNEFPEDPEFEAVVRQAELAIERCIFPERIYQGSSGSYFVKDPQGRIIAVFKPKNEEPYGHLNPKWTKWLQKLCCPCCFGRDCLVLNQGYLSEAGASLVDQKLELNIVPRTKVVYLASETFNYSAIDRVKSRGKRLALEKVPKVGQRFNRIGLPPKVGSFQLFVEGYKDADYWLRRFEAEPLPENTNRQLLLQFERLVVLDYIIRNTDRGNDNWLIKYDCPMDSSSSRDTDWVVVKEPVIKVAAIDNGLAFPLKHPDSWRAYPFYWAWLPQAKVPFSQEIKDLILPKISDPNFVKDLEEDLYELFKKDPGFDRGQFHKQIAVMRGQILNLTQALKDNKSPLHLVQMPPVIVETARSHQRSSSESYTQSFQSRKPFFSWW

On to `N=C(N)CCNC(=O)c1c[nH]c2nc(N)nc(O)c12` [ECHIGUANINE A], for which the IC50 was 113 nM.

(Values after BindingDB's records for doi:10.7270/Q2XG9T96 (n/a, 1997).)
